Structures can show the parent of a compound that is named as a salt.
Assays:
CT26 wt_LLN cells = experiment: Antitumoral efficacy in orthotopic syngeneic CT26 wt colon carcinoma model; type: in vivo, female BALB/c mice; conditions: necropsy day 20, pioglitazone HCl 25 mg/kg, pamapimod 100 mg/kg, p.o. once daily days 3-20; for antitumoral efficacy, primary tumor volume vs vehicle control / antitumoral efficacy, primary tumor weight vs vehicle control: alone or combined; for number of animals with metastases: of 12 animals per group, vehicle group six
Method: Evaluation of the Antitumoral Efficacy of Pamapimod and Pioglitazone Hydrochloride Alone and in Combination in an Orthotopic Syngeneic CT26 wt Colon Carcinoma Model in Female BALB/c Mice In Vivo The study consisted of 4 experimental groups, each containing 12 female BALB/c mice after randomization (for details, see Table 1 below). On day 0, 0.5×10^5 CT26 wt_LLN cells suspended in 15 μl PBS:Matrigel (1:2) were orthotopically implanted into the caecum of all participating animals. In the following period, primary tumor growth was monitored once weekly on days 2, 9, 15 and 20 using in vivo bioluminescence imaging. On day 2, 48 animals were randomized into 4 groups of 12 animals each according to the current in vivo bioluminescence imaging results (block of four after ranking). For block randomization, a robust automated random number generation within individual blocks was used (MS-Excel 2016). Thereby, detected luciferase signals served as randomization criteria. On the following day (day 3), treatment was initiated in all groups (see Table 1 for details). All treatments were performed at 10 ml/kg 1× daily p.o. on days 3-20. Pioglitazone HCL (25 mg/kg) and pamapimod (100 mg/kg) were administered both alone (Groups 2 and 3, respectively) and in combination (Group 4) once daily p.o. Animals of Group 1 were treated with 10 ml/kg Vehicle Control (0.9% NaCl, 0.5% Methyl Cellulose, 0.4% polysorbate 80, 0.9% benzyl alcohol, pH 4.8) once daily p.o. On day 20, the study was terminated due to tumor burden All animals were sacrificed and a necropsy performed. Primary tumors were collected and wet weights and volumes determined. On day 0, prior to surgery, and 24 h after surgery, all animals received the analgetic Meloxicam (Metacam®; 1 mg/kg) via subcutaneous injection. […] Thereby, cells were carefully injected in between caecum and mesentery. After the caecum had been repositioned, the skin was closed with wound clips. In the following, animal weights were measured three times weekly (Monday, Wednesday and Friday; balance: Mettler Toledo PB602-L). Primary tumor growth was monitored once weekly on days 2, 9, 15 and 20 using in vivo bioluminescence imaging. On day 2, 48 animals were randomized into 4 groups of 12 animals each according to the current in vivo bioluminescence imaging results (block of four after ranking). For block randomization, a robust automated random number generation within individual blocks was used (MS-Excel 2016). Thereby, detected luciferase signals served as randomization criteria. On the following day (day 3), treatment was initiated in all groups (see Table 2 for details). During the course of the study, tumor growth was monitored once weekly on days 2, 9, 15 and 20 using in vivo bioluminescence imaging. For this purpose, 150 mg/kg D-Luciferin were injected intraperitoneally (i.p.) into the mice 7 min before anesthetization. Light emission was measured 10 min post injection with a CCD-camera for 1-5 min using a NightOWL LB 981 bioluminescence imaging system (Berthold Technologies, Germany). On day 20, animals were killed by cervical dislocation. Primary tumors were collected, wet weights and volumes determined. Primary tumor volumes were analyzed using descriptive data analysis (Mean, SEM, Median and interquartile range). Statistical analysis of efficacy data was done using the Mann Whitney test and the unpaired t-test (in parentheses). All data analysis was performed using GraphPad Prism 5 from GraphPad Software, Inc., San Diego, USA.

A549 tumor cells = experiment: Antitumoral efficacy in subcutaneous xenograft A549 lung carcinoma model; type: in vivo, female athymic nude mice; conditions: necropsy day 46; pioglitazone HCl 10 mg/kg, pamapimod 100 mg/kg, alone or combined, p.o. once daily days 22-45
Method: Evaluation of the Antitumoral Efficacy of Pamapimod and Pioglitazone Hydrochloride Alone and in Combination in a Subcutaneous Xenograft A549 Lung Carcinoma Model in Female Athymic Nude Mice In Vivo The study consisted of 4 experimental groups, each containing 10 female athymic nude mice after randomization (for details, see Table 1 below). On day 0, 2×10^6 A549 tumor cells in 100 μl PBS:Matrigel (1:1) were subcutaneously implanted into the left flank of all participating female athymic nude mice. In the following, primary tumor sizes were measured two times weekly (Monday and Friday) by calipering. […] For block randomization, a robust automated random number generation within individual blocks was used (MS-Excel 2003). On the following day (day 22), treatment was initiated in all groups (see Table 1 for details). Pioglitazone HCL (10 mg/kg) and pamapimod (100 mg/kg) were administered both alone (Groups 2 and 3, respectively) and in combination (Group 4) once daily p.o. on days 22-45. Animals of Group 1 were treated with 10 ml/kg Vehicle Control (0.9% NaCl, 0.5% Methyl Cellulose, 0.4% polysorbate 80, 0.9% benzyl alcohol, pH 4.8) once daily p.o. for the same time period. The study was terminated on day 46. All animals were sacrificed and necropsy was performed. Primary tumors were collected and wet weights and volumes determined. On day 0, 2×10^6 A549 tumor cells in 100 μl PBS:Matrigel (1:1) were subcutaneously implanted into the left flank of 54 female athymic nude mice. In the following, animal weights were measured three times weekly (Monday, Wednesday and Friday; balance: Mettler Toledo PB602-L). Primary tumor sizes were measured twice weekly by calipering (manual caliper, OMC Fontana). Tumor sizes were calculated according to the formula W^2×L/2 (L=length and W=the perpendicular width of the tumor, L>W). […] For block randomization, a robust automated random number generation within individual blocks was used (MS-Excel 2003). On the following day (day 22), treatment was initiated in all groups (see Table 1 for details). At necropsy, animals were weighed and killed by cervical dislocation. Primary tumors were collected and wet weights and volumes determined. Primary tumor volumes were analyzed using descriptive data analysis (Mean, SEM, Median and interquartile range). Statistical analysis of efficacy data was done using the Mann Whitney test and the unpaired t-test (in parentheses). All data analysis was performed using GraphPad Prism 5 from GraphPad Software, Inc., San Diego, USA.

Question: With `CCc1ccc(CCOc2ccc(CC3SC(=O)NC3=O)cc2)nc1` (stereo not shown) [pioglitazone HCl, pioglitazone hydrochloride] as the molecule, how does the “antitumoral efficacy, primary tumor volume vs vehicle control” value (CT26 wt_LLN cells) read?
Answer: no antitumoral efficacy

Question: What about the “antitumoral efficacy, primary tumor weight vs vehicle control” value (CT26 wt_LLN cells) of the same molecule?
Answer: no antitumoral efficacy

Question: What about the “number of animals with metastases” value (CT26 wt_LLN cells) of the same molecule?
Answer: four

Question: What about the “primary tumor volume vs vehicle control” value (A549 tumor cells) of the same molecule?
Answer: noticeable reduction in both tumor volumes and tumor weights compared to control which approached statistical significance

Question: And the “primary tumor weight vs vehicle control” value (A549 tumor cells)?
Answer: noticeable reduction in both tumor volumes and tumor weights compared to control which approached statistical significance

Question: Which results are given for `Cn1c(=O)c(Oc2ccc(F)cc2F)cc2cnc(NC(CCO)CCO)nc21` [pamapimod, 6-(2,4-Difluorophenoxy)-2-[3-hydroxy-1-(2-hydroxyethyl)-propylamino]-8-methyl-8H-pyrido[2,3-d]pyrimidin-7-one]?
Answer: antitumoral efficacy, primary tumor volume vs vehicle control (CT26 wt_LLN cells): significant in case of primary tumor volumes; antitumoral efficacy, primary tumor weight vs vehicle control (CT26 wt_LLN cells): just beyond significance in case of primary tumor weights; number of animals with metastases (CT26 wt_LLN cells): 2 animals; primary tumor volume vs vehicle control (A549 tumor cells): noticeable decrease in both tumor volumes and tumor weights which was significant for tumor volume; primary tumor weight vs vehicle control (A549 tumor cells): nearly significant for tumor weight

From patent US11285155B2, “Pharmaceutical combinations for treating cancer” (SUPPORT-VENTURE GMBH, priority 2016, dated 2022)
